SMILES strings stand for the structures.

The test system of the first data set is S. mansoni adult worms. The experiment in a line: Motility assay on adult parasites (pixel displacement, relative to DMSO control). Particulars: secondary screen, 10 μM, D1, Female adult worms. Format: cell-based, Schistosoma mansoni. How it is done: Adult parasites were collected from 40 day-old female CD1 mice (Charles River) previously inoculated by the tail infection method ([Lewis, 2001]). Six weeks post-infection, mice were sacrificed, and adult worms extracted after perfusion of in the hepatic portal vein and mesenteric venules ([Lewis, 2001]). Animal procedures were reviewed and approved by the Facility Animal Care Committee of McGill University (Protocol No. 3346) and were conducted in accordance with the guidelines of the Canadian Council on Animal Care.
(§1) Schistosomulae (200/well) and adult parasites (unpaired worms) were maintained in 300 μL OPTI-MEM with 5% dialyzed FBS (without antibiotics) and exposed to compounds at 1 and 10 μM for 24 h. A kinetic assay consisting of 1, 3, 6 and 12 h incubation times was performed on selected hits by motility monitoring using a stereo microscope (SMZ1270, Nikon) for adults and an inverted microscope for schistosomulae (eclipse TE2000-U, Nikon) connected to a monochrome camera (DS-Qi2, Nikon) for image acquisition. Images were recorded at a rate of 10 frames/s for a period of 1 min and videos were analyzed using ImageJ software (version 1.41, NIH, USA). Parasite movement quantification and data analysis protocols were applied using the pixel displacement method ([Patocka et al., 2014]; [Rashid et al., 2015]) and compared to control parasites treated with DMSO. Parasites were then washed several times in Opti-MEM, 5% FBS and incubated up to an additional three days (schistosomulae) or five days (adult worms) at 37 °C, 5% CO2 and motility was recorded as described above.
Turning to `O=C(Nc1ccccc1-c1cn2c(CN3CCNCC3)csc2n1)c1cnc2ccccc2n1` [SRT1720], the Fractional motility came to 3.42.

As for `CCc1ccc(OCc2ccccc2C(=O)Nc2ccc3nc(C)cc(N)c3c2)cc1` [JTC-801], the Fractional motility is listed as 1.22.

As to `Cc1nc(C#Cc2ccnc(Cl)c2)c(C)n1-c1ccc(OC(F)(F)F)cc1` [CTEP], the Fractional motility was -0.44.

In turn, `CCn1c2ccccc2c2cc(Nc3ccnc(NCCCN4CCOCC4)n3)ccc21` [EHop-016] came in with a Fractional motility of 0.25.

With `O=C(C1CCCCC1)N1CC(=O)N2CCc3ccccc3C2C1` (stereo not drawn) [PZQ, praziquantel], the Fractional motility is given as -0.96.

Still in this data set, the particulars now being: secondary screen, 10 μM, D1, Male adult worms.
As for `O=C(Nc1ccccc1-c1cn2c(CN3CCNCC3)csc2n1)c1cnc2ccccc2n1` [SRT1720], the Fractional motility was 2.50.

As for `CCc1ccc(OCc2ccccc2C(=O)Nc2ccc3nc(C)cc(N)c3c2)cc1` [JTC-801], the Fractional motility is listed as 4.15.

`Cc1nc(C#Cc2ccnc(Cl)c2)c(C)n1-c1ccc(OC(F)(F)F)cc1` [CTEP] came in with a Fractional motility of -0.49.

In the case of `CCn1c2ccccc2c2cc(Nc3ccnc(NCCCN4CCOCC4)n3)ccc21` [EHop-016], the Fractional motility worked out at 0.85.

Compound `O=C(C1CCCCC1)N1CC(=O)N2CCc3ccccc3C2C1` (stereo not drawn) [PZQ, praziquantel] registered a Fractional motility of -0.98.

Still in this data set, the particulars now being: secondary screen, 10 μM, D5, Female adult worms.
The compound `O=C(Nc1ccccc1-c1cn2c(CN3CCNCC3)csc2n1)c1cnc2ccccc2n1` [SRT1720] showed a Fractional motility of 0.62.

As to `Cc1nc(C#Cc2ccnc(Cl)c2)c(C)n1-c1ccc(OC(F)(F)F)cc1` [CTEP], the Fractional motility is -0.35.

As to `CCn1c2ccccc2c2cc(Nc3ccnc(NCCCN4CCOCC4)n3)ccc21` [EHop-016], the Fractional motility is -0.62.

`O=C(C1CCCCC1)N1CC(=O)N2CCc3ccccc3C2C1` (stereo not drawn) [PZQ, praziquantel] came in with a Fractional motility of -0.98.

The same data set, now with this note: secondary screen, 10 μM, D5, Male adult worms.
Turning to `O=C(Nc1ccccc1-c1cn2c(CN3CCNCC3)csc2n1)c1cnc2ccccc2n1` [SRT1720], the Fractional motility was determined as 1.34.

The compound `CCc1ccc(OCc2ccccc2C(=O)Nc2ccc3nc(C)cc(N)c3c2)cc1` [JTC-801] yielded a Fractional motility of -0.56.

Compound `Cc1nc(C#Cc2ccnc(Cl)c2)c(C)n1-c1ccc(OC(F)(F)F)cc1` [CTEP] had a Fractional motility of -0.57.

Regarding `CCn1c2ccccc2c2cc(Nc3ccnc(NCCCN4CCOCC4)n3)ccc21` [EHop-016], the Fractional motility is reported as -0.29.

For the compound `O=C(C1CCCCC1)N1CC(=O)N2CCc3ccccc3C2C1` (stereo not drawn) [PZQ, praziquantel], the Fractional motility is given as -0.99.

The test system of another data set is S. mansoni schistosomulae. The experiment in a line: Phenotypic primary screen assay on schistosomulae (phenotype; viability by methylene blue dye exclusion). Format: cell-based, Schistosoma mansoni. Particulars: 24 h incubation, five days. As for the experimental part:
Puerto Rican strain Biomphalaria glabrata snails infected with S. mansoni were kindly provided by Dr. Fred Lewis (Biomedical Research Institute and BEI Resources, MD, USA). Schistosomulae were obtained by exposing six to eight weeks-old snails to continuous light for 2 h at 32 °C. […] At this point, animals with internal dark granulations and with no observable body contraction/relaxation cycles were considered dead.
Schistosomulae were monitored under a stereo microscope (SMZ1270, Nikon). Phenotypic observations were made by analyzing schistosomulae, 24 h after drug addition to assess any immediate effect and five days post-compound exposure to observe long-term impacts on both the movement and overall body shape in comparison to control animals exposed to DMSO only.
With `O=C(Nc1ccccc1-c1cn2c(CN3CCNCC3)csc2n1)c1cnc2ccccc2n1` [SRT1720], the “effect on viability of schistosomulae in words” value is reported as “lethal”.

Turning to `CCc1ccc(OCc2ccccc2C(=O)Nc2ccc3nc(C)cc(N)c3c2)cc1` [JTC-801], the “effect on viability of schistosomulae in words” value is “lethal”.

Still in this data set, the particulars now being: three-day-old schistosomulae, 10 μM, 24 h; calculated 5 days post compound exposure.
With `O=C(Nc1ccccc1-c1cn2c(CN3CCNCC3)csc2n1)c1cnc2ccccc2n1` [SRT1720], the “Viability (%)” value is recorded as 0%.

In the case of `CCc1ccc(OCc2ccccc2C(=O)Nc2ccc3nc(C)cc(N)c3c2)cc1` [JTC-801], the “Viability (%)” value is 0%.

Take `Cc1nc(C#Cc2ccnc(Cl)c2)c(C)n1-c1ccc(OC(F)(F)F)cc1` [CTEP]: the “Viability (%)” value was 99%.

For `CCn1c2ccccc2c2cc(Nc3ccnc(NCCCN4CCOCC4)n3)ccc21` [EHop-016], the “Viability (%)” value is 80%.

Still in this data set, the particulars now being: three-day-old schistosomulae, 10 μM, 24 h; estimated 5 days post compound exposure.
For `O=C(Nc1ccccc1-c1cn2c(CN3CCNCC3)csc2n1)c1cnc2ccccc2n1` [SRT1720], the Phenotype result is “dark, granulated”.

Regarding `CCc1ccc(OCc2ccccc2C(=O)Nc2ccc3nc(C)cc(N)c3c2)cc1` [JTC-801], the Phenotype entry is on record as “big, granulated”.

In the case of `Cc1nc(C#Cc2ccnc(Cl)c2)c(C)n1-c1ccc(OC(F)(F)F)cc1` [CTEP], the Phenotype result is recorded as “big, granulated, blebbing”.

For the compound `CCn1c2ccccc2c2cc(Nc3ccnc(NCCCN4CCOCC4)n3)ccc21` [EHop-016], the Phenotype result is reported as “big, dark”.

The test system of the next data set is S. mansoni schistosomulae. The data set is described as follows: Motility assay on schistosomulae (pixel displacement, relative to DMSO control). Format: cell-based, Schistosoma mansoni. The conditions noted are these: Schistosoma mansoni, 120 h; schistosomulae, secondary screen, 24h exposure, read at D5, 1 µM; read-out: Fractional motility. As for the experimental part:
Puerto Rican strain Biomphalaria glabrata snails infected with S. mansoni were kindly provided by Dr. Fred Lewis (Biomedical Research Institute and BEI Resources, MD, USA). Schistosomulae were obtained by exposing six to eight weeks-old snails to continuous light for 2 h at 32 °C. The resulting suspension of cercaria was then mechanically transformed as described ([Lewis, 2001]) and cultured in Opti-MEM/antibiotics (Thermo Fisher Scientific, Waltham, MA) containing 100 μg/mL streptomycin and 100 units/ml penicillin supplemented with 5% fetal bovine serum (FBS; Thermo Fisher). Parasite cultures were incubated at 37 °C with 5% CO2 for at least 10 days with no apparent loss of viability. At this point, animals with internal dark granulations and with no observable body contraction/relaxation cycles were considered dead.
as §1
On to `O=C(C1CCCCC1)N1CC(=O)N2CCc3ccccc3C2C1` (stereo not drawn) [PZQ, praziquantel], for which the activity at 1 µM was -29%.

The data set is the same for the next values; noted with them: Schistosoma mansoni; schistosomulae, secondary screen, 24h exposure, read at D1, 1 µM; read-out: Fractional motility.
For `O=C(C1CCCCC1)N1CC(=O)N2CCc3ccccc3C2C1` (stereo not drawn) [PZQ, praziquantel], the activity at 1 µM is -30%.

The data set is the same for the next values; noted with them: schistosomulae, 1h exposure, read at D1, 10 µM.
As for `CCc1ccc(OCc2ccccc2C(=O)Nc2ccc3nc(C)cc(N)c3c2)cc1` [JTC-801], the Fractional motility was -0.51.

The same data set, now with this note: schistosomulae, 3h exposure, read at D1, 10 µM.
With `CCc1ccc(OCc2ccccc2C(=O)Nc2ccc3nc(C)cc(N)c3c2)cc1` [JTC-801], the Fractional motility was -0.95.

The data set is the same for the next values; noted with them: schistosomulae, 3h exposure, read at D5, 10 µM.
Compound `CCc1ccc(OCc2ccccc2C(=O)Nc2ccc3nc(C)cc(N)c3c2)cc1` [JTC-801] registered a Fractional motility of -0.09.

Staying with this data set, now noted: schistosomulae, 6h exposure, read at D1, 10 µM.
`CCc1ccc(OCc2ccccc2C(=O)Nc2ccc3nc(C)cc(N)c3c2)cc1` [JTC-801] registered a Fractional motility of -0.74.

Still in this data set, the particulars now being: schistosomulae, 6h exposure, read at D5, 10 µM.
With `CCc1ccc(OCc2ccccc2C(=O)Nc2ccc3nc(C)cc(N)c3c2)cc1` [JTC-801], the Fractional motility is listed as -0.71.

Still in this data set, the particulars now being: schistosomulae, secondary screen, 24h exposure, read at D1, 1 µM.
`O=C(Nc1ccccc1-c1cn2c(CN3CCNCC3)csc2n1)c1cnc2ccccc2n1` [SRT1720]: the Fractional motility is 20.54.

As for `CCc1ccc(OCc2ccccc2C(=O)Nc2ccc3nc(C)cc(N)c3c2)cc1` [JTC-801], the Fractional motility was determined as 3.71.

For the compound `Cc1nc(C#Cc2ccnc(Cl)c2)c(C)n1-c1ccc(OC(F)(F)F)cc1` [CTEP], the Fractional motility turned out to be 0.25.

In turn, `CCn1c2ccccc2c2cc(Nc3ccnc(NCCCN4CCOCC4)n3)ccc21` [EHop-016] came in with a Fractional motility of 3.03.

The same data set, now with this note: schistosomulae, secondary screen, 24h exposure, read at D1, 10 µM.
In turn, `O=C(Nc1ccccc1-c1cn2c(CN3CCNCC3)csc2n1)c1cnc2ccccc2n1` [SRT1720] returned a Fractional motility of -1.00.

Turning to `CCc1ccc(OCc2ccccc2C(=O)Nc2ccc3nc(C)cc(N)c3c2)cc1` [JTC-801], the Fractional motility is reported as -1.00.

`Cc1nc(C#Cc2ccnc(Cl)c2)c(C)n1-c1ccc(OC(F)(F)F)cc1` [CTEP]: the Fractional motility was 1.01.

Compound `CCn1c2ccccc2c2cc(Nc3ccnc(NCCCN4CCOCC4)n3)ccc21` [EHop-016] displayed a Fractional motility of 0.07.

For the compound `O=C(C1CCCCC1)N1CC(=O)N2CCc3ccccc3C2C1` (stereo not drawn) [PZQ, praziquantel], the Fractional motility is recorded as -0.47.

The data set is the same for the next values; noted with them: schistosomulae, secondary screen, 24h exposure, read at D5, 1 µM.
`O=C(Nc1ccccc1-c1cn2c(CN3CCNCC3)csc2n1)c1cnc2ccccc2n1` [SRT1720] displayed a Fractional motility of 0.36.

Take `CCc1ccc(OCc2ccccc2C(=O)Nc2ccc3nc(C)cc(N)c3c2)cc1` [JTC-801]: the Fractional motility came out at 1.04.

For `Cc1nc(C#Cc2ccnc(Cl)c2)c(C)n1-c1ccc(OC(F)(F)F)cc1` [CTEP], the Fractional motility stood at 0.27.

In turn, `CCn1c2ccccc2c2cc(Nc3ccnc(NCCCN4CCOCC4)n3)ccc21` [EHop-016] showed a Fractional motility of 0.99.

The same data set, now with this note: schistosomulae, secondary screen, 24h exposure, read at D5, 10 µM.
On to `O=C(Nc1ccccc1-c1cn2c(CN3CCNCC3)csc2n1)c1cnc2ccccc2n1` [SRT1720], for which the Fractional motility is given as -1.00.

With `CCc1ccc(OCc2ccccc2C(=O)Nc2ccc3nc(C)cc(N)c3c2)cc1` [JTC-801], the Fractional motility was -0.99.

With `Cc1nc(C#Cc2ccnc(Cl)c2)c(C)n1-c1ccc(OC(F)(F)F)cc1` [CTEP], the Fractional motility is listed as 0.27.

Compound `CCn1c2ccccc2c2cc(Nc3ccnc(NCCCN4CCOCC4)n3)ccc21` [EHop-016] came in with a Fractional motility of -0.94.

Compound `O=C(C1CCCCC1)N1CC(=O)N2CCc3ccccc3C2C1` (stereo not drawn) [PZQ, praziquantel] had a Fractional motility of -0.47.

Values taken from paper PMC7284125, “Identification of annotated bioactive molecules that impair motility of the blood fluke Schistosoma mansoni” (International Journal for Parasitology: Drugs and Drug …, 2020).
